Experiments:
[1] = Plasma profiles of Compound 1 and metabolite 1-7 after single oral doses of Compound 1-A, cynomolgus monkeys; assay type: in vivo; conditions: monkey
[2] = Head-to-head comparison of Compound 1 and Compound 1-A in dogs: plasma levels; assay type: in vivo; conditions: dog plasma, normalized to a dose of 25 mg/kg; 25 mg/kg
Protocol: A head-to-head comparison of dogs dosed with Compound 1 and Compound 1-A was conducted.

[3] = system: replicons containing the NS5B sequences from HCV laboratory reference strains (GT1a, 1b, 2a, 3a, 4a and 5a); assay: Replicons containing NS5B sequences from laboratory reference strains; assay type: cell-based; conditions: laboratory strains of HCV Genotypes 1-5
[4] = Plasma profiles of Compound 1 and metabolite 1-7 after single oral dose of Compound 1-A, Sprague-Dawley rats; assay type: in vivo; conditions: rat, single oral dose of Compound 1-A 500 mg/kg (0.5% CMC, 0.5% Tween 80 in water)
[5] = system: replicons containing the NS5B sequences from HCV patient plasma samples (GT1a, 1b, 2a, 2b, 3a-1, 3a-2, 4a and 4d); assay: Replicons containing NS5B sequences from HCV patient plasma samples (clinical isolates); assay type: cell-based
[6] = Three-part study (Parts C, D, E) of Compound 1-A: overall safety/tolerability and pharmacokinetics; assay type: in vivo, human; conditions: for AUC(0-inf): human, in vivo
Protocol: (§1) Part C was a randomized, double-blind, placebo-controlled MAD study divided into three cohorts. […] The dose escalation only proceeded following satisfactory review of the data.
HCV-infected patients were treatment-naïve with HCV RNA ≥5 log 10 IU/mL. […] Plasma drug levels were measured using LC-MS/MS.

GT1 HCV [7] = assay: Single ascending dose study of Compound 1-A in GT1-HCV infected patients (Part B); assay type: in vivo, human; conditions: single oral dose of Compound 1-A, plasma
Protocol: Subjects in Part B received a single dose of Compound 1-A in the fasting state. Patients were confined to the clinic from Day −1 to Day 6.
Part B was initiated after the safety (through Day 5) and plasma pharmacokinetic (through 24 h) data review from Cohort 3a in Part A. Available safety data (through Day 5) and pharmacokinetic data (through 24 h) was reviewed for the first cohort in Part B (Cohort 1b) before enrolling subsequent Part B cohorts. Subsequent Part B cohorts were only dosed following review of available safety and pharmacokinetic data from the respective doses in Part A as well as available safety (through Day 5) from the prior Part B cohorts.
Patients infected with HCV were treatment-naïve, non-cirrhotic GT1-infected subjects with a viral load of ≥5 log10 IU/mL.
Baseline was defined as the mean of Day −1 and Day 1 (pre-dose). […] The mean maximum HCV RNA reduction 24 hours post-dose following a single 300 mg dose was 1.7 log10 IU/mL and this compares to a −2 log 10 IU/mL reduction after 1 day of 400 mg of sofosbuvir monotherapy in GT1a HCV-infected subjects. The mean maximum HCV RNA reduction 24 hours post-dose following a single 100 mg dose was 0.8 log10 IU/mL. The mean 10 maximum HCV RNA reduction was 2.2 log10 IU/mL following a single 400 mg dose.

[8] = Solubility in biorelevant test medias (water, SGF, FaSSIF, FeSSIF); conditions: for Appearance: solubility test; for Descriptive term: solubility
GT1 HCV [9] = assay: Multiple dose study, 7 days QD, non-cirrhotic GT1 HCV-infected patients (Part C); assay type: in vivo, human; conditions: Part C; for Mean ± SD HCV RNA change from baseline to 24 h / Mean ± SD HCV RNA maximum change from baseline: N = 6
Protocol: (§2) Doses were administered as the Compound 1-A salt base. The free base Compound 1 equivalent is often given in parenthesis.
as §1
(§3) HCV-infected patients were treatment-naïve with HCV RNA ≥5 log 10 IU/mL. HCV RNA was quantified using COBAS® AmpliPrep TaqMAN® v2.0 with LLQ of 15 IU/mL. Plasma drug levels were measured using LC-MS/MS. […] Mean ages of enrolled subjects were 44, 39, and 56 years in the non-cirrhotic GT1b 600 mg dose cohort, non-cirrhotic GT3 cohort, and the cirrhotic cohort, respectively.

HCV NS5A = conditions: wide range of HCV genotypes and common clinical mutants; cited from earlier work
GT1, GT2, or GT3 HCV = assay: 600 mg QD for 7 days in Child-Pugh A cirrhotic patients with GT1, GT2 or GT3 HCV (Part E); assay type: in vivo, human; conditions: Part E, 600 mg/day
Protocol: Doses were administered as the Compound 1-A salt base. The free base Compound 1 equivalent is often given in parenthesis. […]
as §3

GT3 HCV = assay: 600 mg QD for 7 days in non-cirrhotic GT3 HCV-infected patients (Part D); assay type: in vivo, human; conditions: Part D, 600 mg/day, N = 6
Protocol: as §2, §1, §3

[10] = single oral dose of Compound 1-A 30 mg/kg (powder in capsules)
[11] = single oral dose of Compound 1-A 100 mg/kg (powder in capsules)
[12] = single oral dose of Compound 1-A 300 mg/kg (powder in capsules)

Work on CNc1nc(N)nc2c1ncn2[C@@H]1O[C@H](CO[P@@](=O)(N[C@@H](C)C(=O)OC(C)C)Oc2ccccc2)[C@@H](O)[C@@]1(C)F [Compound 1, isopropyl((S)-(((2R,3R,4R,5R)-5-(2-amino-6-(methylamino)-9H-purin-9-yl)-4-fluoro-3-hydroxy-4-methyltetrahydrofuran-2-yl)methoxy)(phenoxy)phosphoryl)-L-alaninate] yielded an AUC0-last [1, 10] of 176 ng·h/mL, a Cmax [1, 10] of 63.5 ng/mL and a Tmax [1, 10] of 30 to 120 min. For the same compound, the AUC0-last [1, 11] was 1100 ng·h/mL, the Cmax [1, 11] was 783 ng/mL and the Tmax [1, 11] was 60 to 120 min. The AUC0-last [1, 12] was 1600 ng·h/mL, the Cmax [1, 12] was 501 ng/mL and the “Mean Dose-normalized AUC(0-4 hr) for Compound 1” value [2] was 0.2 µM·h. The “EC50 values, times lower than (more potent than) sofosbuvir” value [3] was 6-11 times, the AUC0-last [4] was 78.2 ng·h/mL and the Cmax [4] was 60.8 ng/mL. For the same compound, the Tmax [4] was 15 min, the EC95 ([5]; HCV GT1) was “approximately 21.7 ng/mL equivalents of metabolite 1-7” and the EC95 ([5]; HCV GT2) was ~11.6 ng/mL equivalents of metabolite 1-7. For the same compound, the EC95 ([5]; HCV GT3) was ~17.5 ng/mL equivalents of metabolite 1-7, the “EC95 values, times lower than sofosbuvir” value ([5]; clinical isolates of all HCV genotypes tested) was 7-33 times and the EC95 ([5]; clinical isolates, all tested genotypes) was < 80 nM. For the same compound, the estimated fraction absorbed ([6]; based on urine recovery) was ~50%, the AUC(0-inf) ([6]; 150 mg/d, AUC Day 1 (AUCinf for Compound 1), Part C, 150 mg/d (n=6), Day 1) was 492 ± 141 ng·h/mL and the AUC(0-inf) ([6]; 150 mg/d, AUC SS (AUCinf for Compound 1), Part C, 150 mg/d (n=6), steady state) was 475 ± 301 ng·h/mL. The AUC(0-inf) ([6]; 300 mg/d, AUC Day 1 (AUCinf for Compound 1), Part C, 300 mg/d (n=6), Day 1) was 1950 ± 1120 ng·h/mL, the AUC(0-inf) ([6]; 300 mg/d, AUC SS (AUCinf for Compound 1), Part C, 300 mg/d (n=6), steady state) was 1510 ± 976 ng·h/mL and the AUC(0-inf) ([6]; 600 mg/d, AUC Day 1 (AUCinf for Compound 1), Part C, 600 mg/d (n=6), Day 1) was 3340 ± 1500 ng·h/mL. It also gave an AUC(0-inf) ([6]; 600 mg/d, AUC Day 1 (AUCinf for Compound 1), Part D, 600 mg/d (n=6), Day 1) of 3330 ± 1240 ng·h/mL, an AUC(0-inf) ([6]; 600 mg/d, AUC Day 1 (AUCinf for Compound 1), Part E, 600 mg/d (n=6), Day 1) of 3320 ± 1470 ng·h/mL and an AUC(0-inf) ([6]; 600 mg/d, AUC SS (AUCinf for Compound 1), Part C, 600 mg/d (n=6), steady state) of 4040 ± 2090 ng·h/mL. The AUC(0-inf) ([6]; 600 mg/d, AUC SS (AUCinf for Compound 1), Part D, 600 mg/d (n=6), steady state) was 3750 ± 2280 ng·h/mL, the AUC(0-inf) ([6]; 600 mg/d, AUC SS (AUCinf for Compound 1), Part E, 600 mg/d (n=6), steady state) was 3530 ± 1600 ng·h/mL and the “time within which the parent is metabolized” value (GT1 HCV [7]) was ≤ 8 h. The Appearance ([8]; FaSSIF) was “Turbid”, the Appearance ([8]; FeSSIF) was “Turbid” and the Appearance ([8]; SGF) was “Clear Solution”. The Appearance ([8]; Water) was “Clear Solution”, the Descriptive term ([8]; FaSSIF) was “Slightly Soluble” and the Descriptive term ([8]; FeSSIF) was “Slightly Soluble”. For the same compound, the Descriptive term ([8]; SGF) was “Sparingly”, the Descriptive term ([8]; Water) was “Slightly Soluble” and the half-life (GT1 HCV [9]; daily dosing for 7 days) was “short half-life”.
In the case of COC(=O)N[C@H](C(=O)N1CCC[C@H]1c1ncc(-c2cc(F)c3c(c2)O[C@@H](c2cnc(C4CC4)s2)n2c-3cc3cc(-c4cnc([C@@H]5CCCN5C(=O)[C@@H](NC(=O)OC)C(C)C)[nH]4)ccc32)[nH]1)C(C)C [Compound 2, dimethyl N,N′-([(6S)-6-(2-Cyclopropyl-1,3-thiazol-5-yl)-1-fluoro-6H-indolo[1,2-c][1,3]benzoxazine-3,10-diyl]bis{1H-imidazole-5,2-diyl-(2S)-pyrrolidine-2,1-diyl[(2S)-3-methyl-1-oxobutane-1,2-diyl]})dicarbamate], the “affinity for HCV NS5A” value (HCV NS5A) is listed as “sub- to low-picomolar”, the “Individual HCV RNA maximum change from baseline” value (GT1, GT2, or GT3 HCV; GT1b individual subjects, listed as Compd 2) is listed as “GT1b: 4.0, log10 IU/mL” and the “Individual HCV RNA maximum change from baseline” value (GT1, GT2, or GT3 HCV; GT2 individual subject) is listed as “GT2: 4.8 log10 IU/mL”. For the same compound, the “Mean ± SD HCV RNA change from baseline to 24 h” value (shortened to “Mean ± SD HCV RNA change”) (GT1, GT2, or GT3 HCV; N = 6) was 2.4 ± 0.2 log10 IU/mL, the “Mean ± SD HCV RNA maximum change from baseline” value (“Mean ± SD HCV RNA maximum change” below) (GT1, GT2, or GT3 HCV; N = 6) was 4.6 ± 0.5 log10 IU/mL and the “Mean ± SD HCV RNA change” value (GT3 HCV) was 2.3 ± 0.3 log10 IU/mL. The “Mean ± SD HCV RNA maximum change” value (GT3 HCV) was 4.5 ± 0.3 log10 IU/mL, the “Mean ± SD HCV RNA change” value (GT1 HCV [9]; 150 mg/day) was 1.2 ± 0.3 log10 IU/mL and the “Mean ± SD HCV RNA maximum change” value (GT1 HCV [9]; 150 mg/day) was 2.6 ± 1.1 log10 IU/mL. For the same compound, the “Mean ± SD HCV RNA change” value (GT1 HCV [9]; 300 mg/day) was 1.9 ± 0.2 log10 IU/mL, the “Mean ± SD HCV RNA maximum change” value (GT1 HCV [9]; 300 mg/day) was 4.0 ± 0.4 log10 IU/mL and the “Mean ± SD HCV RNA change” value (GT1 HCV [9]; 600 mg/day) was 2.1 ± 0.2 log10 IU/mL. For the same compound, the “Mean ± SD HCV RNA maximum change” value (GT1 HCV [9]; 600 mg/day) was 4.4 ± 0.7 log10 IU/mL.
